Laboratory results taken from US20250134863A1, “MEDICAL AGENT FOR TREATING OR SUPPRESSING PROGRESSION OF AMYOTROPHIC LATERAL SCLEROSIS” (MITSUBISHI TANABE PHARMA CORPORATION, priority 2022, published 2025).
Where “and” joins values, the source holds several entries; their conditions need not be identical. Equal entries are not always repeated.

How the values were obtained:
Assay type in all cases: in vivo, human
ALS patients [1] = experiment: Post-hoc statistical analysis 1: blood uric acid levels in 25% improvement and non-25% improvement groups
Description: (§1) The blood uric acid levels in the 16 trial, 17 trial, and 19 trial were measured values obtained using the uricase-peroxidase method.
In the present analysis, efficacy was analyzed for placebo patients who had completed the 24-week double-blind period (cycles 1 to 6) and had at least one data point in cycle 7. To estimate the percent change in ALSFRS-R slope for transition from placebo administration (baseline to 24 weeks) to edaravone administration (24 weeks 24 to 48 weeks), a random coefficient model was applied to all available ALSFRS-R score data during this period.
A 25% improvement group meets both of the following criteria:
(1) ALSFRS-R slope % change ≥+25% (this change is defined as a clinically significant improvement (Reference 5: Amyotroph Lateral Scler 2010; 11 (1-2): 178-180)) and (2) ALSFRS-R total score at the start of cycle 7 (24 weeks)>24 points (half of the 48-point ALSFRS-R total score) (this helps avoid floor effects related to the ALSFRS-R total score that could lead to false positives in the analysis).
These criteria were used to define a 25% improvement group and a non-25% improvement group. Using a mixed model for repeated measures, the changes in uric acid levels from the start of cycle 7 (24 weeks) to cycle 12 (48 weeks) were summarized for the 25% improvement group and the non-25% improvement group. The correlation between the change in uric acid levels from 24 weeks to 48 weeks and the ALSFRS-R slope percent change was descriptively summarized using the Wilcoxon test.

ALS patients [2] = experiment: Post-hoc statistical analysis 2: uric acid levels from baseline to cycle 12 (16, 17 and 19 trials)
From the text: After a 12-week observation period, patients whose ALSFRS-R total score decreased by 1 to 4 points during that period were considered eligible for the trial. In the 16 trial, eligible patients were randomly divided into an edaravone treatment group and a placebo administration group, and patients in each group received administration for 24 weeks (cycles 1 to 6). After completing the 24-week double-blind portion of the 16 trial, patients who received edaravone (E) were randomly assigned to the 17 trial, and during a 24-week double-blind extension period (cycles 7 to 12), edaravone treatment (EE group) or placebo administration (EP group) was performed. On the other hand, all patients from the placebo (P) administration group received edaravone treatment (PE group). All patients received open-label edaravone treatment for the next 12 weeks (cycles 13 to 15).
(§2) Edaravone was administered at a dose of 60 mg by intravenous infusion over 60 minutes, once daily. The infusion was given for 14 days in the first treatment cycle, and for 10 days out of the 14-day treatment period in all subsequent cycles. A 14-day drug holiday period was provided after each treatment cycle.
Similar to the 16 trial, after a 12-week observation period, patients in the 19 trial were randomly divided into an edaravone treatment group and a placebo administration group, and patients in each group received administration for 24 weeks (cycles 1 to 6). In the 19 trial, after the double-blind treatment period, all patients received open-label edaravone treatment for an additional 24 weeks (cycles 7 to 12). Therefore, the 19 trial included an EE group and a PE group.
as §1
In order to characterize the uric acid level and ALSFRS-R total score profiles at cycle 12, efficacy was analyzed in randomized ALS patients at the start of cycle 7 and randomized ALS patients who received the medical agent at least once after the start of cycle 7.
Descriptive statistics (number of subjects, mean, standard deviation, minimum, maximum) were used to summarize the changes in uric acid levels (mg/dL) and ALSFRS-R total scores from baseline to cycle 12 for the entire population and for the Edaravone treatment group as a subgroup defined by the median baseline uric acid level (4.8 mg/dL). The median baseline uric acid level for all patients (4.8 mg/dL) was derived using the entire edaravone population, including the EE, PE, and EP groups in the 16 trial, the 17 trial, and the 19 trial.

ALS patients [3] = experiment: MCI186-19 trial (19 trial), randomized double-blind placebo-controlled phase 3, edaravone injection, ALSFRS-R; conditions: edaravone group, placebo −7.50±0.66, p=0.0013
From the text: Clinical trials using edaravone injections include two-group phase 3 trials. In the first phase 3 trials [MCI186-16 trial (hereinafter referred to as the 16 trial) and MCI186-17 trial (hereinafter referred to as the 17 trial)], it was shown that edaravone was involved in suppressing decline in ALS function compared to placebo, as evaluated by an ALSFRS-R total score. A subgroup showing a significant therapeutic effect of Edaravone has been identified by the 16 trial, and an inclusion criterion for this subgroup is also used in designing a second major phase 3 trial, that is, a 19 trial (MCI186-19).
as §2
The MCI186-19 trial (hereinafter referred to as the 19 trial) was a randomized, double-blind, parallel-group, placebo-controlled trial. Details of the trial are as described in NCT01492686, Reference 3 (Lancet Neurol 2017; 16 (7): 505-512) and Reference 4 (Amyotroph Lateral Scler Frontotemporal Degener 2017; 18 (suppl 1): 55-63). […]

[4] = 25% improvement group, ALS severity grade 3 to 5
[5] = 25% improvement group, ALS severity grade 3 to 5, first change section of Table 3 (n=21)
[6] = 25% improvement group, ALS severity grade 3 to 5, second change section of Table 3 (n=18)
[7] = 25% improvement group, all severities
[8] = non-25% improvement group, ALS severity grade 3 to 5
[9] = non-25% improvement group, ALS severity grade 3 to 5, first change section of Table 3 (n=39)
[10] = non-25% improvement group, ALS severity grade 3 to 5, second change section of Table 3 (n=24)
[11] = non-25% improvement group, all severities
[12] = Subgroup with uric acid level baseline <4.8 mg/dL, EE group
[13] = Subgroup with uric acid level baseline <4.8 mg/dL, EP group
[14] = Subgroup with uric acid level baseline <4.8 mg/dL, PE group
[15] = Subgroup with uric acid level baseline ≥4.8 mg/dL, EE group
[16] = Subgroup with uric acid level baseline ≥4.8 mg/dL, EP group
[17] = Subgroup with uric acid level baseline ≥4.8 mg/dL, PE group

CC1=NN(c2ccccc2)C(=O)C1 [edaravone, 3-methyl-1-phenyl-2-pyrazolin-5-one]
Uric acid level at final administration of Cycle 7, Mean (SD) (ALS patients [1]; [4]): 4.65 (1.49) mg/dL | Uric acid level at final administration of Cycle 12, Mean (SD) (ALS patients [1]; [4]): 4.61 (1.48) mg/dL | Uric acid change from start of Cycle 7 to final administration of Cycle 12, LS mean (SE) (ALS patients [1]; [5]): −0.37 (0.24) mg/dL | Uric acid change from start of Cycle 7 to final administration of Cycle 12, Mean (SD) (ALS patients [1]; [5]): 0.05 (0.47) mg/dL | Uric acid change from start of Cycle 7 to final administration of Cycle 12, LS mean (SE) (ALS patients [1]; [6]): −0.42 (0.24) mg/dL | Uric acid change from start of Cycle 7 to final administration of Cycle 12, Mean (SD) (ALS patients [1]; [6]): 0.04 (0.60) mg/dL | Uric acid change from start of Cycle 7 to final administration of Cycle 7, LS mean (SE) (ALS patients [1]; [7]): −0.16 mg/dL and −0.16 (0.15) mg/dL | Uric acid change from start of Cycle 7 to final administration of Cycle 7, Mean (SD) (ALS patients [1]; [7]): 0.05 mg/dL and 0.05 (0.49) mg/dL | Uric acid change from start of Cycle 7 to final administration of Cycle 12, LS mean (SE) (ALS patients [1]; [7]): −0.28 mg/dL and −0.28 (0.15) mg/dL | Uric acid change from start of Cycle 7 to final administration of Cycle 12, Mean (SD) (ALS patients [1]; [7]): −0.04 mg/dL and −0.04 (0.68) mg/dL | Uric acid level at final administration of Cycle 12, Mean (SD) (ALS patients [1]; [7]): 4.51 (1.43) mg/dL | Uric acid level at final administration of Cycle 7, Mean (SD) (ALS patients [1]; 25% improvement group, all severities, 2 weeks after starting edaravone): 4.63 (1.45) mg/dL | Uric acid change from start of Cycle 7 to final administration of Cycle 12, LSMD (SE) between 25% improvement group and non-25% improvement group (ALS patients [1]; ALS severity grade 3 to 5, first change section of Table 3, p=0.1701): 0.24 (0.18) mg/dL | Uric acid change from start of Cycle 7 to final administration of Cycle 12, LSMD (SE) between 25% improvement group and non-25% improvement group (ALS patients [1]; ALS severity grade 3 to 5, second change section of Table 3, p=0.0044): 0.55 (0.19) mg/dL | Uric acid change from start of Cycle 7 to final administration of Cycle 12, LSMD (SE) between 25% improvement group and non-25% improvement group (ALS patients [1]; all severities, p=0.0252): 0.28 mg/dL and 0.28 (0.12) mg/dL | Uric acid change from start of Cycle 7 to final administration of Cycle 7, LSMD (SE) between 25% improvement group and non-25% improvement group (ALS patients [1]; all severities, p=0.0726): 0.21 mg/dL and 0.21 (0.12) mg/dL | Uric acid level at final administration of Cycle 7, Mean (SD) (ALS patients [1]; [8]): 4.31 (1.10) mg/dL | Uric acid level at final administration of Cycle 12, Mean (SD) (ALS patients [1]; [8]): 4.18 (1.00) mg/dL | Uric acid change from start of Cycle 7 to final administration of Cycle 12, LS mean (SE) (ALS patients [1]; [9]): −0.61 (0.21) mg/dL | Uric acid change from start of Cycle 7 to final administration of Cycle 12, Mean (SD) (ALS patients [1]; [9]): −0.22 (0.60) mg/dL | Uric acid change from start of Cycle 7 to final administration of Cycle 12, LS mean (SE) (ALS patients [1]; [10]): −0.98 (0.22) mg/dL | Uric acid change from start of Cycle 7 to final administration of Cycle 12, Mean (SD) (ALS patients [1]; [10]): −0.40 (1.02) mg/dL | Uric acid change from start of Cycle 7 to final administration of Cycle 7, LS mean (SE) (ALS patients [1]; [11]): −0.37 mg/dL and −0.37 (0.12) mg/dL | Uric acid change from start of Cycle 7 to final administration of Cycle 7, Mean (SD) (ALS patients [1]; [11]): −0.14 mg/dL and −0.14 (0.52) mg/dL | Uric acid change from start of Cycle 7 to final administration of Cycle 12, LS mean (SE) (ALS patients [1]; [11]): −0.56 mg/dL and −0.56 (0.12) mg/dL | Uric acid change from start of Cycle 7 to final administration of Cycle 12, Mean (SD) (ALS patients [1]; [11]): -0.22 mg/dL and −0.22 (0.81) mg/dL | Uric acid level at final administration of Cycle 7, Mean (SD) (ALS patients [1]; [11]): 4.46 (1.29) mg/dL | Uric acid level at final administration of Cycle 12, Mean (SD) (ALS patients [1]; [11]): 4.48 (1.29) mg/dL | Uric acid level change from BL to cycle 12, Mean (SD) (ALS patients [2]; Overall, EE group): -0.25 mg/dL | Uric acid level change from BL to cycle 12, Mean (SD) (ALS patients [2]; Overall, EE group, listed as Edaravone): −0.25 (0.86) mg/dL | Uric acid level change from BL to cycle 12, Mean (SD) (ALS patients [2]; Overall, EP group): -0.22 mg/dL | Uric acid level change from BL to cycle 12, Mean (SD) (ALS patients [2]; Overall, EP group, listed as Edaravone): −0.22 (0.77) mg/dL | Uric acid level at Cycle 12, Mean (SD) (ALS patients [2]; Overall, Edaravone-Edaravone (EE) group): 4.4 (1.36) mg/dL | Uric acid level at Cycle 12, Mean (SD) (ALS patients [2]; Overall, Edaravone-Placebo (EP) group): 4.9 (1.20) mg/dL | Uric acid level change from BL to cycle 12, Mean (SD) (ALS patients [2]; Overall, PE group): -0.37 mg/dL | Uric acid level change from BL to cycle 12, Mean (SD) (ALS patients [2]; Overall, PE group, listed as Edaravone): −0.37 (0.86) mg/dL | Uric acid level at Cycle 12, Mean (SD) (ALS patients [2]; Overall, Placebo-Edaravone (PE) group): 4.5 (1.32) mg/dL | Uric acid level at Cycle 12, Mean (SD) (ALS patients [2]; [12]): 3.6 (0.85) mg/dL | Uric acid level change from BL to cycle 12, Mean (SD) (ALS patients [2]; [12]): −0.10 (0.69) mg/dL | Uric acid level at Cycle 12, Mean (SD) (ALS patients [2]; [13]): 4.1 (0.93) mg/dL | Uric acid level change from BL to cycle 12, Mean (SD) (ALS patients [2]; [13]): 0.15 (0.64) mg/dL | Uric acid level at Cycle 12, Mean (SD) (ALS patients [2]; [14]): 3.6 (0.95) mg/dL | Uric acid level change from BL to cycle 12, Mean (SD) (ALS patients [2]; [14]): 0.00 (0.71) mg/dL | Uric acid level at Cycle 12, Mean (SD) (ALS patients [2]; [15]): 5.4 (1.21) mg/dL | Uric acid level change from BL to cycle 12, Mean (SD) (ALS patients [2]; [15]): -0.4 mg/dL | Uric acid level change from BL to cycle 12, Mean (SD) (ALS patients [2]; Subgroup with uric acid level baseline ≥4.8 mg/dL, EE group, listed as Edaravone): −0.41 (1.01) mg/dL | Uric acid level at Cycle 12, Mean (SD) (ALS patients [2]; [16]): 5.5 (1.04) mg/dL | Uric acid level change from BL to cycle 12, Mean (SD) (ALS patients [2]; [16]): -0.48 mg/dL | Uric acid level change from BL to cycle 12, Mean (SD) (ALS patients [2]; Subgroup with uric acid level baseline ≥4.8 mg/dL, EP group, listed as Edaravone): −0.48 (0.77) mg/dL | Uric acid level at Cycle 12, Mean (SD) (ALS patients [2]; [17]): 5.2 (1.17) mg/dL | Uric acid level change from BL to cycle 12, Mean (SD) (ALS patients [2]; [17]): -0.68 mg/dL | Uric acid level change from BL to cycle 12, Mean (SD) (ALS patients [2]; Subgroup with uric acid level baseline ≥4.8 mg/dL, PE group, listed as Edaravone): −0.68 (0.86) mg/dL | LS mean±standard error of the change in ALSFRS-R from baseline to 24 weeks (ALS patients [3]): −5.01±0.64
